Measurements reported in patent US8759500B2, “Crystalline forms of a macrolide, and uses therefor” (Cempra Pharmaceuticals, Inc., priority 2010, dated 2014).

Columns and labels:
Assay type in all cases: physicochemical
[1] = Interconversion slurries of Form I and Form II
Description: As shown in the interconversion of slurries experiment summarized below in the Examples in Table B, slurries of Forms I and II are prepared in 2-propanol (IPA) and […] (MEK) at ambient, sub-ambient, and elevated temperatures. In 2-propanol, conversion of Form I to Form II appears to be solubility driven at ambient and sub-ambient temperatures, with little apparent change observed in the ratio of Forms I and II by XRPD analysis over 3 days. Extending the interconversion period to 8 days at room temperature left only a trace of Form I remaining. In 2-propanol, at elevated temperature, only Form II is obtained.
Interconversion studies by slurrying of Form I and Form II are shown in the following Table B in which the starting solid was a mixture of Form I and Form II; IPA is isopropyl alcohol (isopropanol) and MEK is methyl ethyl ketone (2-butanone).

[2] = Mean intrinsic dissolution studies
Excerpt: Mean intrinsic dissolution rates for exemplary batches of the two forms are shown in Table cC-2 for 3 batches of Form I (SD and % CV for one batch shown) and for Form II.

[3] = Stability of Form I and Form II under various storage conditions
Excerpt: In each case, the test material was first placed in Primary Packaging Material (LLDPE bag within a HMHDPE/LDPE/LDPE blend bag, and then heat sealed). The Primary Packaging Material was placed in Secondary Packaging Material (HDPE drum). All other impurities were less than 1% at each time point.

In the case of CC[C@H]1OC(=O)[C@@](C)(F)C(=O)[C@H](C)[C@@H](O[C@@H]2O[C@H](C)C[C@H](N(C)C)[C@H]2O)[C@](C)(OC)C[C@@H](C)C(=O)[C@H](C)[C@H]2N(CCCCn3cc(-c4cccc(N)c4)nn3)C(=O)O[C@]12C [CEM-101 Form A and B Solids], the “XRPD Result” value ([1]; slurry in IPA, 2-8° C. 3 days) was “Form I + II”, the “XRPD Result” value ([1]; slurry in IPA, 2-8° C. 5 days (8 days total), continuation of previous slurry) was “Form I + II” and the “XRPD Result” value ([1]; slurry in IPA, 60° C. 3 days) was “Form II”. For the same molecule, the “XRPD Result” value ([1]; slurry in IPA, RT 3 days) was “Form I + II”, the “XRPD Result” value ([1]; slurry in MEK, 2-8° C. 3 days) was “Form II” and the “XRPD Result” value ([1]; slurry in MEK, 60° C. 3 days (6 days total), continuation with additional solids) was “Form II”. For the same molecule, the “XRPD Result” value ([1]; slurry in MEK, RT 3 days) was “Form II”.

In the case of CC[C@H]1OC(=O)[C@@](C)(F)C(=O)[C@H](C)[C@@H](O[C@@H]2O[C@H](C)C[C@H](N(C)C)[C@H]2O)[C@](C)(OC)C[C@@H](C)C(=O)[C@H](C)[C@H]2N(CCCCn3cc(-c4cccc(N)c4)nn3)C(=O)O[C@]12C [Form I Batch A], the “Mean intrinsic dissolution rate” value ([2]; 0.1N Hydrochloric Acid) was 9.4 mg/min/cm^2, the “Mean intrinsic dissolution rate” value ([2]; Acetate buffer, pH 4.5) was 2.1 mg/min/cm^2 and the “Mean intrinsic dissolution rate” value ([2]; Phosphate buffer, pH 6.8) was 0.004 mg/min/cm^2. The “Mean intrinsic dissolution rate” value ([2]; Phosphate buffer, pH 7.6) was 0.02 mg/min/cm^2 and the “Mean intrinsic dissolution rate” value ([2]; Water) was 2.0 mg/min/cm^2.

In the case of CC[C@H]1OC(=O)[C@@](C)(F)C(=O)[C@H](C)[C@@H](O[C@@H]2O[C@H](C)C[C@H](N(C)C)[C@H]2O)[C@](C)(OC)C[C@@H](C)C(=O)[C@H](C)[C@H]2N(CCCCn3cc(-c4cccc(N)c4)nn3)C(=O)O[C@]12C [Form I Batch B], the “Mean intrinsic dissolution rate” value ([2]; 0.1N Hydrochloric Acid) was 10.6 mg/min/cm^2, the “Mean intrinsic dissolution rate” value ([2]; Acetate buffer, pH 4.5) was 2.8 mg/min/cm^2 and the “Mean intrinsic dissolution rate” value ([2]; Phosphate buffer, pH 6.8) was 0.03 mg/min/cm^2. For the same molecule, the “Mean intrinsic dissolution rate” value ([2]; Phosphate buffer, pH 7.6) was 0.001 mg/min/cm^2 and the “Mean intrinsic dissolution rate” value ([2]; Water) was 0.7 mg/min/cm^2.

In the case of CC[C@H]1OC(=O)[C@@](C)(F)C(=O)[C@H](C)[C@@H](O[C@@H]2O[C@H](C)C[C@H](N(C)C)[C@H]2O)[C@](C)(OC)C[C@@H](C)C(=O)[C@H](C)[C@H]2N(CCCCn3cc(-c4cccc(N)c4)nn3)C(=O)O[C@]12C [Form I (Lot 4)], the 3-Ethynylaniline ([3]; 2-8° C., 3 Month) was 0.01%, the “Assay (on hydrous basis)” value ([3]; 2-8° C., 3 Month) was 98.4% and the “Chromatographic Purity” value ([3]; 2-8° C., 3 Month) was 98.1%. For the same molecule, the Water ([3]; 2-8° C., 3 Month) was 1.56%, the 3-Ethynylaniline ([3]; 2-8° C., 6 Month) was 0.01% and the “Assay (on hydrous basis)” value ([3]; 2-8° C., 6 Month) was 98.3%. For the same molecule, the “Chromatographic Purity” value ([3]; 2-8° C., 6 Month) was 98.3%, the Water ([3]; 2-8° C., 6 Month) was 1.47% and the 3-Ethynylaniline ([3]; 2-8° C., 12 Month) was “Not Detected”. The “Assay (on hydrous basis)” value ([3]; 2-8° C., 12 Month) was 98.2%, the “Chromatographic Purity” value ([3]; 2-8° C., 12 Month) was 98.4% and the Water ([3]; 2-8° C., 12 Month) was 1.51%. The 3-Ethynylaniline ([3]; 2-8° C., Initial) was 0.01%, the “Assay (on hydrous basis)” value ([3]; 2-8° C., Initial) was 99.0% and the “Chromatographic Purity” value ([3]; 2-8° C., Initial) was 98.2%. For the same molecule, the Water ([3]; 2-8° C., Initial) was 0.92%, the 3-Ethynylaniline ([3]; 25° C./60% RH, 3 Month) was 0.01% and the “Assay (on hydrous basis)” value ([3]; 25° C./60% RH, 3 Month) was 98.3%. The “Chromatographic Purity” value ([3]; 25° C./60% RH, 3 Month) was 98.1%, the Water ([3]; 25° C./60% RH, 3 Month) was 1.59% and the 3-Ethynylaniline ([3]; 25° C./60% RH, 6 Month) was “Not Detected”. The “Assay (on hydrous basis)” value ([3]; 25° C./60% RH, 6 Month) was 98.2%, the “Chromatographic Purity” value ([3]; 25° C./60% RH, 6 Month) was 98.4% and the Water ([3]; 25° C./60% RH, 6 Month) was 1.75%. The 3-Ethynylaniline ([3]; 25° C./60% RH, 12 Month) was “Not Detected”, the “Assay (on hydrous basis)” value ([3]; 25° C./60% RH, 12 Month) was 98.1% and the “Chromatographic Purity” value ([3]; 25° C./60% RH, 12 Month) was 98.4%. For the same molecule, the Water ([3]; 25° C./60% RH, 12 Month) was 1.78%, the 3-Ethynylaniline ([3]; 25° C./60% RH, Initial) was 0.01% and the “Assay (on hydrous basis)” value ([3]; 25° C./60% RH, Initial) was 99.0%. The “Chromatographic Purity” value ([3]; 25° C./60% RH, Initial) was 98.2%, the Water ([3]; 25° C./60% RH, Initial) was 0.92% and the 3-Ethynylaniline ([3]; 40° C./75% RH, 3 Month) was 0.01%. For the same molecule, the “Assay (on hydrous basis)” value ([3]; 40° C./75% RH, 3 Month) was 98.2%, the “Chromatographic Purity” value ([3]; 40° C./75% RH, 3 Month) was 98.4% and the Water ([3]; 40° C./75% RH, 3 Month) was 1.65%. The 3-Ethynylaniline ([3]; 40° C./75% RH, 12 Month) was 0.01%, the “Assay (on hydrous basis)” value ([3]; 40° C./75% RH, 12 Month) was 98.1% and the “Chromatographic Purity” value ([3]; 40° C./75% RH, 12 Month) was 98.3%. The Water ([3]; 40° C./75% RH, 12 Month) was 1.82%, the 3-Ethynylaniline ([3]; 40° C./75% RH, Initial) was 0.01% and the “Assay (on hydrous basis)” value ([3]; 40° C./75% RH, Initial) was 99.0%. The “Chromatographic Purity” value ([3]; 40° C./75% RH, Initial) was 98.2% and the Water ([3]; 40° C./75% RH, Initial) was 0.92%.

In the case of CC[C@H]1OC(=O)[C@@](C)(F)C(=O)[C@H](C)[C@@H](O[C@@H]2O[C@H](C)C[C@H](N(C)C)[C@H]2O)[C@](C)(OC)C[C@@H](C)C(=O)[C@H](C)[C@H]2N(CCCCn3cc(-c4cccc(N)c4)nn3)C(=O)O[C@]12C [Form I (Lot 3)], the 3-Ethynylaniline ([3]; 2-8° C., 3 Month) was 0.01%, the “Assay (on hydrous basis)” value ([3]; 2-8° C., 3 Month) was 98.9% and the “Chromatographic Purity” value ([3]; 2-8° C., 3 Month) was 98.1%. For the same molecule, the Water ([3]; 2-8° C., 3 Month) was 1.63%, the 3-Ethynylaniline ([3]; 2-8° C., 6 Month) was “Not Detected” and the “Assay (on hydrous basis)” value ([3]; 2-8° C., 6 Month) was 98.8%. For the same molecule, the “Chromatographic Purity” value ([3]; 2-8° C., 6 Month) was 98.4%, the Water ([3]; 2-8° C., 6 Month) was 1.61% and the 3-Ethynylaniline ([3]; 2-8° C., 12 Month) was “Not Detected”. For the same molecule, the “Assay (on hydrous basis)” value ([3]; 2-8° C., 12 Month) was 98.7%, the “Chromatographic Purity” value ([3]; 2-8° C., 12 Month) was 98.5% and the Water ([3]; 2-8° C., 12 Month) was 1.69%. For the same molecule, the 3-Ethynylaniline ([3]; 2-8° C., Initial) was 0.01%, the “Assay (on hydrous basis)” value ([3]; 2-8° C., Initial) was 99.5% and the “Chromatographic Purity” value ([3]; 2-8° C., Initial) was 98.3%. The Water ([3]; 2-8° C., Initial) was 1.11%, the 3-Ethynylaniline ([3]; 25° C./60% RH, 3 Month) was 0.01% and the “Assay (on hydrous basis)” value ([3]; 25° C./60% RH, 3 Month) was 98.7%. The “Chromatographic Purity” value ([3]; 25° C./60% RH, 3 Month) was 98.1%, the Water ([3]; 25° C./60% RH, 3 Month) was 1.65% and the 3-Ethynylaniline ([3]; 25° C./60% RH, 6 Month) was “Not Detected”. For the same molecule, the “Assay (on hydrous basis)” value ([3]; 25° C./60% RH, 6 Month) was 98.6%, the “Chromatographic Purity” value ([3]; 25° C./60% RH, 6 Month) was 98.3% and the Water ([3]; 25° C./60% RH, 6 Month) was 1.71%. The 3-Ethynylaniline ([3]; 25° C./60% RH, 12 Month) was “Not Detected”, the “Assay (on hydrous basis)” value ([3]; 25° C./60% RH, 12 Month) was 98.5% and the “Chromatographic Purity” value ([3]; 25° C./60% RH, 12 Month) was 98.4%. The Water ([3]; 25° C./60% RH, 12 Month) was 1.75%, the 3-Ethynylaniline ([3]; 25° C./60% RH, Initial) was 0.01% and the “Assay (on hydrous basis)” value ([3]; 25° C./60% RH, Initial) was 99.5%. The “Chromatographic Purity” value ([3]; 25° C./60% RH, Initial) was 98.3%, the Water ([3]; 25° C./60% RH, Initial) was 1.11% and the 3-Ethynylaniline ([3]; 40° C./75% RH, 3 Month) was 0.01%. For the same molecule, the “Assay (on hydrous basis)” value ([3]; 40° C./75% RH, 3 Month) was 98.5%, the “Chromatographic Purity” value ([3]; 40° C./75% RH, 3 Month) was 98.0% and the Water ([3]; 40° C./75% RH, 3 Month) was 1.68%. For the same molecule, the 3-Ethynylaniline ([3]; 40° C./75% RH, 12 Month) was 0.01%, the “Assay (on hydrous basis)” value ([3]; 40° C./75% RH, 12 Month) was 98.3% and the “Chromatographic Purity” value ([3]; 40° C./75% RH, 12 Month) was 98.3%. For the same molecule, the Water ([3]; 40° C./75% RH, 12 Month) was 1.84%, the 3-Ethynylaniline ([3]; 40° C./75% RH, Initial) was 0.01% and the “Assay (on hydrous basis)” value ([3]; 40° C./75% RH, Initial) was 99.5%. The “Chromatographic Purity” value ([3]; 40° C./75% RH, Initial) was 98.3% and the Water ([3]; 40° C./75% RH, Initial) was 1.11%.

For CC[C@H]1OC(=O)[C@@](C)(F)C(=O)[C@H](C)[C@@H](O[C@@H]2O[C@H](C)C[C@H](N(C)C)[C@H]2O)[C@@](C)(OC)C[C@@H](C)C(=O)[C@H](C)[C@H]2N(CCCCn3cc(-c4cccc(N)c4)nn3)C(=O)O[C@]12C [Form I Batch C], the “Mean intrinsic dissolution rate” value ([2]; 0.1N Hydrochloric Acid) was 7.9 mg/min/cm^2, the “Mean intrinsic dissolution rate” value ([2]; Acetate buffer, pH 4.5) was 2.7 mg/min/cm^2 and the “Mean intrinsic dissolution rate” value ([2]; Phosphate buffer, pH 6.8) was 0.02 mg/min/cm^2. The “Mean intrinsic dissolution rate” value ([2]; Water) was 1.6 mg/min/cm^2.
